# Measurements published in patent publication US8530667B2, “Herbicides” (Syngenta Limited, priority 2007, dated 2013).
# Legend:
# Assay type in all cases: in vivo
# [1] = test system: Echinochloa crus-galli (ECHCG); assay: Example A post-emergence herbicidal activity, glasshouse pot test; settings: Rate 125 g/ha, evaluated 14 or 15 days later, read-out: Post-Emergence Activity ECHCG (100=total damage to plant; 0=no damage to plant)
# Method: (§1) Seeds of a variety of test species were sown in standard soil in pots. After cultivation for one day (pre-emergence) or after 10 days cultivation (post-emergence) under controlled conditions in a glasshouse, the plants were sprayed with an aqueous spray solution derived from the formulation of the technical active ingredient in 0.6 ml acetone and 45 ml formulation solution containing 10.6% Emulsogen EL (Registry number 61791-12-6), 42.2% N-methylpyrrolidone, 42.2% dipropylene glycol monomethyl ether (Registry number 34590-94-8) and 0.2% X-77 (Registry number 11097-66-8). The test plants were then grown in a greenhouse under optimum conditions until, 14 or 15 days later for post-emergence and 19 or 20 days for pre-emergence, the test was evaluated (100=total damage to plant; 0=no damage to plant). Alopecurus myosuroides (ALOMY), Avena fatua (AVEFA), Lolium perenne (LOLPE), Setaria faberi (SETFA), Digitaria sanguinalis (DIGSA), Echinochloa crus-galli (ECHCG)
# [2] = test system: Digitaria sanguinalis (DIGSA); assay: as above; settings: Rate 125 g/ha, evaluated 14 or 15 days later, read-out: Post-Emergence Activity DIGSA (100=total damage to plant; 0=no damage to plant)
# Method: as §1
# [3] = test system: Alopecurus myosuroides (ALOMY); assay: as above; settings: Rate 125 g/ha, evaluated 14 or 15 days later, read-out: Post-Emergence Activity ALOMY (100=total damage to plant; 0=no damage to plant)
# Method: as §1
# Lolium perenne (LOLPE) [4] = assay: as above; settings: Rate 125 g/ha, evaluated 14 or 15 days later, read-out: Post-Emergence Activity LOLPE (100=total damage to plant; 0=no damage to plant)
# Method: as §1
# Avena fatua (AVEFA) [5] = assay: as above; settings: Rate 125 g/ha, evaluated 14 or 15 days later, read-out: Post-Emergence Activity AVEFA (100=total damage to plant; 0=no damage to plant)
# Method: as §1
# Setaria faberi (SETFA) [6] = assay: as above; settings: Rate 125 g/ha, evaluated 14 or 15 days later, read-out: Post-Emergence Activity SETFA (100=total damage to plant; 0=no damage to plant)
# Method: as §1
# [7] = test system: Echinochloa crus-galli (ECHCG); assay: Example A pre-emergence herbicidal activity, glasshouse pot test; settings: evaluated 19 or 20 days later, read-out: Pre-Emergence Activity ECHCG (100=total damage to plant; 0=no damage to plant); for pest or weed control at 500 g/ha: Rate 500 g/ha; for pest or weed control at 250 g/ha: Rate 250 g/ha
# Method: as §1
# [8] = test system: Digitaria sanguinalis (DIGSA); assay: as above; settings: evaluated 19 or 20 days later, read-out: Pre-Emergence Activity DIGSA (100=total damage to plant; 0=no damage to plant); for pest or weed control at 500 g/ha: Rate 500 g/ha; for pest or weed control at 250 g/ha: Rate 250 g/ha
# Method: as §1
# [9] = test system: Alopecurus myosuroides (ALOMY); assay: as above; settings: evaluated 19 or 20 days later, read-out: Pre-Emergence Activity ALOMY (100=total damage to plant; 0=no damage to plant); for pest or weed control at 500 g/ha: Rate 500 g/ha; for pest or weed control at 250 g/ha: Rate 250 g/ha
# Method: as §1
# Lolium perenne (LOLPE) [10] = assay: as above; settings: evaluated 19 or 20 days later, read-out: Pre-Emergence Activity LOLPE (100=total damage to plant; 0=no damage to plant); for pest or weed control at 500 g/ha: Rate 500 g/ha; for pest or weed control at 250 g/ha: Rate 250 g/ha
# Method: as §1
# Avena fatua (AVEFA) [11] = assay: as above; settings: evaluated 19 or 20 days later, read-out: Pre-Emergence Activity AVEFA (100=total damage to plant; 0=no damage to plant); for pest or weed control at 500 g/ha: Rate 500 g/ha; for pest or weed control at 250 g/ha: Rate 250 g/ha
# Method: as §1
# Setaria faberi (SETFA) [12] = assay: as above; settings: evaluated 19 or 20 days later, read-out: Pre-Emergence Activity SETFA (100=total damage to plant; 0=no damage to plant); for pest or weed control at 500 g/ha: Rate 500 g/ha; for pest or weed control at 250 g/ha: Rate 250 g/ha
# Method: as §1
SMILES,pest or weed control at 125 g/ha [1] [%],pest or weed control at 125 g/ha [2] [%],pest or weed control at 125 g/ha [3] [%],pest or weed control at 125 g/ha (Lolium perenne (LOLPE) [4]) [%],pest or weed control at 125 g/ha (Avena fatua (AVEFA) [5]) [%],pest or weed control at 125 g/ha (Setaria faberi (SETFA) [6]) [%],pest or weed control at 500 g/ha [7] [%],pest or weed control at 500 g/ha [8] [%],pest or weed control at 500 g/ha [9] [%],pest or weed control at 500 g/ha (Lolium perenne (LOLPE) [10]) [%],pest or weed control at 500 g/ha (Avena fatua (AVEFA) [11]) [%],pest or weed control at 500 g/ha (Setaria faberi (SETFA) [12]) [%],pest or weed control at 250 g/ha [7] [%],pest or weed control at 250 g/ha [8] [%],pest or weed control at 250 g/ha [9] [%],pest or weed control at 250 g/ha (Lolium perenne (LOLPE) [10]) [%],pest or weed control at 250 g/ha (Avena fatua (AVEFA) [11]) [%],pest or weed control at 250 g/ha (Setaria faberi (SETFA) [12]) [%]
Cc1sc(Br)cc1C1C(=O)[C@@H]2[C@H](C1=O)[C@H]1CC[C@@H]2O1 (stereo partly drawn) [Compound T5],0,30,10,0,10,10,0,0,0,0,20,0,–,–,–,–,–,–
Cc1nc(-c2cc(C3C(=O)[C@@H]4[C@H](C3=O)[C@H]3CC[C@@H]4O3)c(C)s2)cs1 (stereo partly drawn) [Compound T7],50,0,0,0,0,0,0,20,10,10,10,0,–,–,–,–,–,–
"CCc1sc(-c2ccc(Cl)cc2)nc1C1C(=O)[C@@H]2[C@H](C1=O)[C@H]1CC[C@@H]2O1 (stereo partly drawn) [Compound T23, 4-[2-(4-chloro-phenyl)-5-ethyl-thiazol-4-yl]-10-oxa-tricyclo[5.2.1.0*2,6*]decane-3,5-dione]",100,100,100,100,100,100,100,100,100,90,90,100,–,–,–,–,–,–
Cc1sc(-c2ccc(Cl)cc2)nc1C1C(=O)[C@H]2[C@@H]3CC[C@@](C)(O3)[C@H]2C1=O (mixture of isomers) [Compound T24],100,90,70,30,70,80,–,–,–,–,–,–,100,100,90,90,60,100
Cc1sc(-c2ccc(Br)cc2)nc1C1C(=O)[C@@H]2[C@H](C1=O)[C@H]1CC[C@@H]2O1 (stereo partly drawn) [Compound T28],100,100,70,50,70,80,–,–,–,–,–,–,100,100,100,100,100,100
